In patent US4654349A, “Anti-allergic methods using pyrazolo(1,5-A)pyridines” (Kyorin Pharmaceutical Co., Ltd., priority 1983, dated 1987):

Columns and labels:
SRS-A release = experiment: Inhibitory effect on SRS-A release (chopped lung fragments of sensitized guinea pigs upon antigen challenge, bioassayed on isolated guinea pig ileum); type: cell-based; conditions: Cavia porcellus; concentration of test compound required to produce a 50% inhibition of SRS-A release; preincubated with lung fragments prior to antigen challenge
Procedure: The inhibitory effect of the compounds of this invention on SRS-A release was determined according to the method of Orange and Moors [J. Immunol., 116, 392 (1976)]. SRS-A released from chopped lung fragments of sensitized guinea pigs upon antigen challenge was bioassayed on isolate guinea pig ileum according to the method of Brocklehurst [J. Physiol., 151, 416 (1960)]. Test compounds were preincubated with lung fragments prior to antigen challenge.

5-Lipoxygenase = target: T1, 5-Lipoxygenase (Cavia porcellus, UniProt A0A286X958); experiment: Effect on metabolism of exogenous arachidonic acid in A23187-stimulated guinea pig peritoneal neutrophils: 5-lipoxygenase product; type: cell-based; conditions: read-out: Inhibition percent, 5-Lipoxygenase
T1 construct: using guinea pig peritoneal neutrophils stimulated with calcium ionophore A23187; endogenous in cells; host or cells: guinea pig peritoneal neutrophils
T1 sequence (A0A286X958 1-674): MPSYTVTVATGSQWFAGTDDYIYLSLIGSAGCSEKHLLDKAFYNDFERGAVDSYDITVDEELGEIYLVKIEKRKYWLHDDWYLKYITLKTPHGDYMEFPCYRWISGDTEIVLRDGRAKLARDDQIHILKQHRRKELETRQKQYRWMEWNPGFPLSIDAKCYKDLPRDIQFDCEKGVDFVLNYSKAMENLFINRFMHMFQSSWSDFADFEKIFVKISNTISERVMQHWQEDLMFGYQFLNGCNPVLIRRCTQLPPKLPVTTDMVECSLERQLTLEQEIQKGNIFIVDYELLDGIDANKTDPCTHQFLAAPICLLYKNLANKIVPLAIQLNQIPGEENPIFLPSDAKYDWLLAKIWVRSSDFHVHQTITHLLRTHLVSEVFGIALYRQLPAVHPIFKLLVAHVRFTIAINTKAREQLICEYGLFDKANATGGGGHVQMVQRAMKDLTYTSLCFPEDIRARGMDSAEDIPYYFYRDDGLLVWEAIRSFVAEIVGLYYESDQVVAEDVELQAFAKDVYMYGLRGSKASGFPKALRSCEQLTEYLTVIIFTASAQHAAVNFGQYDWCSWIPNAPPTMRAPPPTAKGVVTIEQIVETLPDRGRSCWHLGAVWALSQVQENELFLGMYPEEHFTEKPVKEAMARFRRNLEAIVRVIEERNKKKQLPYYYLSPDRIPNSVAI
Procedure: (§1) The effect of the compounds of this invention on the metabolism of exogenous arachidonic acid-1-^14 C was determined essentially according to the method of Harvey and Osborne [J. Pharmacol. Methods 9, 147 (1983)] using guinea pig peritoneal neutrophils stimulated with calcium ionophore A23187. With this procedure, 5-hydroxyeicosatetraenoic acid (a 5-lipoxygenase product) and 12-hydroxy-5,8,10-heptadecatrienoic acid (a cyclooxygenase product) were produced by neutrophils as major metabolites, allowing simultaneous evaluation of the drug effect on both pathways of arachidonic acid metabolism.

Cyclooxygenase = experiment: Effect on metabolism of exogenous arachidonic acid in A23187-stimulated guinea pig peritoneal neutrophils: cyclooxygenase product; type: cell-based
Procedure: as §1

[1] = must be insufflated as a powder; cited from earlier work

inhibition at 0.1 µM (5-Lipoxygenase) [%]	SMILES	IC50 (SRS-A release) [µg/mL]	Inhibition percent, Cyclooxygenase (Cyclooxygenase; 0.1 μM) [%]	further results
	Cc1cccc2c(OC(=O)C(C)C)c(C(C)C)nn12 [compound 14]	0.53		
20.3	CC(C)Cc1nn2ccccc2c1O [compound 5]	1.8	0	inhibition at 1 µM (5-Lipoxygenase): 86.6%; Inhibition percent, Cyclooxygenase (Cyclooxygenase; 1.0 μM): 0%
35.1	CCc1nn2ccccc2c1OC(C)=O [compound 9]	1	0	inhibition at 0.3 µM (5-Lipoxygenase): 61.7%; Inhibition percent, Cyclooxygenase (Cyclooxygenase; 0.3 μM): 0%
	CC(=O)Oc1c(-c2ccc(F)cc2)nn2ccccc12 [compound 20]	2.4		inhibition at 1 µM (5-Lipoxygenase): 83.7%; Inhibition percent, Cyclooxygenase (Cyclooxygenase; 1.0 μM): 0%
62	CCC(=O)Oc1cnn2cc(CC)ccc12 [compound 7, 6-Ethyl-3-propionyloxypyrazolo[1,5-a]pridine]	1	0	inhibition at 0.3 µM (5-Lipoxygenase): 84%; Inhibition percent, Cyclooxygenase (Cyclooxygenase; 0.3 μM): 0%
	Oc1c(-c2ccc(F)cc2)nn2ccccc12 [compound 6, 2-p-Fluorophenyl-3-hydroxypyrazolo[1,5-a]pyridine]	2.4		
	Cc1nn2ccccc2c1OC(=O)C(C)C [compound 8]	1.7		
	CCOC(=O)Oc1c(C(C)C)nn2cc(CC)ccc12 [compound 17, 3-Ethoxycarbonyloxy-6-ethyl-2-isopropylpyrazolo[1,5-a]pyridine]	1.5		
	CC(C)c1nn2ccccc2c1O [compound 2]	1.4		
16.9	CC(C)CC(=O)Oc1c(CC(C)C)nn2ccccc12 [compound 16]	1.9	0	inhibition at 0.3 µM (5-Lipoxygenase): 82.1%; Inhibition percent, Cyclooxygenase (Cyclooxygenase; 0.3 μM): 0%
	Cc1cccc2c(O)c(C(C)C)nn12 [compound 3]	0.63		
	CCc1ccc2c(O)c(C(C)C)nn2c1 [compound 4, 6-Ethyl-3-hydroxy-2-isopropylpyraxolo[1,5-a]pyridine]	3.5		
	CCc1ccc2c(OC(=O)C(C)C)c(C(C)C)nn2c1 [compound 15, 6-Ethyl-3-isobutyryloxy-2-isopropylpyrazolo[1,5-a]pyridine]	1.2		
20.6	CCCc1nn2ccccc2c1OC(C)=O [compound 10]	1.7	0	inhibition at 0.3 µM (5-Lipoxygenase): 80.2%; Inhibition percent, Cyclooxygenase (Cyclooxygenase; 0.3 μM): 0%
	CC(C)C(=O)Oc1c(C(C)C)nn2ccccc12 [compound 13]	0.88		
	O=C(O)c1cc(=O)c2c(OCC(O)COc3cccc4oc(C(=O)O)cc(=O)c34)cccc2o1 [disodium cromoglycate]			oral activity (in words) [1]: orally inactive
	O=C1CCN(c2ccccc2)N1 [phenidone, 1phenyl-3-pyrazolidone, reference compound]	6.3		inhibition at 0.3 µM (5-Lipoxygenase): 22%; inhibition at 1 µM (5-Lipoxygenase): 60%; inhibition at 3 µM (5-Lipoxygenase; 3.0 μM): 89%; inhibition at 30 µM (5-Lipoxygenase; 30.0 μM): 95.5%; Inhibition percent, Cyclooxygenase (Cyclooxygenase; 0.3 μM): 0%; Inhibition percent, Cyclooxygenase (Cyclooxygenase; 1.0 μM): 0%; Inhibition percent, Cyclooxygenase (Cyclooxygenase; 3.0 μM): 0%; Inhibition percent, Cyclooxygenase (Cyclooxygenase; 30.0 μM): 58.2%
	CC(=O)Oc1c(C(C)C)nn2ccccc12 [compound 11]	0.7		
	CCc1ccc2c(O)cnn2c1 [compound 1, 6-Ethyl-3-hydroxypyrazolo[1,5-a]pyridine]	0.55		
53.2	CCC(=O)Oc1c(C(C)C)nn2ccccc12 [compound 12]	0.52	0	
